For assay [1], the system named is HBV replication in AML12HBV10 cells. In words: Antiviral efficacy in AML12HBV10 cells (HBV DNA dot-blot hybridization). The assay is classed as cell-based, Hepatitis B virus (HBV). As to conditions: Hepatitis B virus, AML12HBV10, 48 h, read-out: AML12HBV10 EC50, concentration that reduces the amount of HBV DNA by 50%, serial dilution 50 μM to 0.39 μM. On the procedure:
The HBV replication inhibitors of the present invention are capable of treating and preventing diseases associated with HBV infection.
The antiviral efficacy of the compounds of the disclosure, as presented in Table 1, were determined in AML12HBV10 cells. AML12HBV10 is an immortalized murine hepatocyte (AML12)-derived stable cell line that supports robust HBV replication in a tetracycline inducible manner (Xu et al.). The cells were seeded into 96 well plates at a density of 2×10^4 cells per well and cultured in DMEM/F12 media with 10% fetal bovine serum in the absence of tetracycline to allow pgRNA transcription and HBV DNA replication. One day after seeding, cells were left untreated or treated with a serial dilution of testing compounds, ranging from 50 μM to 0.39 μM, for 48 hours. Cells were then lysed by adding into each well of 100 μl lysis buffer containing 10 mM Tris-HCl (pH 7.6), 1 mM EDTA, 100 mM NaCl and 1% NP-40 and incubated at 37° C. for 30 minutes. Half amount (50 μl) of cell lysate from each well was combined with equal volume of denaturing solution containing 0.5N NaOH and 1.5M NaCl. After 5 minute incubation, 100 µl of neutralization solution (1M Tris-HCl, pH 7.4, 1.5M NaCl) was added into each well. The denatured cell lysates (totally 200 μl) were applied onto Nylon membrane using 96-well dot-blot manifold (Biorad). HBV DNA in the cell lysates were determined by dot-blot hybridization with alpha-^32P-UTP-labelled riboprobe specific for HBV minus strand DNA. The antiviral efficacy of a compound of the disclosure was expressed as the concentration that reduces the amount of HBV DNA by 50% (EC50).

Assay [2] relates to HBV replication in HepDES19 cells. In words: Antiviral activity in HepDES19 cells (core-associated HBV DNA, Southern blot). The assay is classed as cell-based, Hepatitis B virus (HBV). To be noted: Hepatitis B virus, HepDES19, 144 h, concentration that reduces core-associated HBV DNA by 50%; 6 days; serial dilution 10 μM to 0.018 μM. From the text:
Determination of antiviral activity of compounds of the disclosure, as presented in Table 1, in human hepatoma-derived cell lines: To further confirm the antiviral activity of the compounds of the disclosure against HBV in human hepatocyte-derived cells, HepDES19 cells, a human hepatoma cell line supporting HBV replication in a tetracycline inducible manner (Guo et al., 2007), seeded into 12-well plates at a density of 5×10^5 cells per well and cultured in DMEM/F12 media with 10% fetal bovine serum and 1 μg/ml tetracycline. Two days after seeding, the cells were mock-treated or treated with a serial dilution of compounds of the disclosure, ranging from 10 μM to 0.018 μM, for 6 days in the absence of tetracycline. Upon the completion of treatment, cells were lysed by adding into each well of the 12-well plates 0.5 ml of lysis buffer containing 10 mM Tris-HCl (pH 8.0), 1 mM EDTA, 1% NP40 and 2% sucrose and incubating at 37° C. for 10 minutes. Cell debris and nuclei were removed by centrifugation and the supernatant was mixed with 130 μl of 35% polyethylene glycol (PEG) 8000 containing 1.5 M NaCl. After 1 hour incubation in ice, viral nucleocapsids were pelleted by centrifugation at 6,000×g for 5 min at 4° C., followed by 1 hour digestion at 37° C. in 400 μl of digestion buffer containing 0.5 mg/ml pronase (Calbiochem), 0.5% SDS, 150 mM NaCl, 25 mM Tris-HCl (pH 8.0) and 10 mM EDTA. The digestion mixture was extracted twice with phenol and DNA was precipitated with ethanol, dissolved in TE buffer (10 mM Tris-HCl, pH 8.0; 0.1 mM EDTA). One half of the DNA sample from each well was resolved by electrophoresis into a 1.5% agarose gel. The gel was then subjected to denaturation in a solution containing 0.5 M NaOH and 1.5 M NaCl, followed by neutralization in a buffer containing 1 M Tris-HCl (pH7.4) and 1.5 M NaCl. DNA was then blotted onto Hybond-XL membrane (GE Health care) in 20×SSC buffer. The amounts of cytoplasmic HBV core-associated HBV DNA were determined by Southern blot hybridization and the antiviral efficacy of a compound was expressed as its concentration that reduce the amount of HBV DNA by 50% (EC50) or 90% (EC90).

Consider `O=C(Nc1cccc(Cl)c1)c1scc2c1OCCO2` [Entry 6], for which the EC50 turned out to be 0.4 µM in assay [1] and 13.5 µM in assay [2].

Source of the values: patent US20190092720A1, “FUNCTIONALIZED BENZAMIDE DERIVATIVES AS ANTIVIRAL AGENTS AGAINST HBV INFECTION” (BARUCH S. BLUMBERG INSTITUTE, priority 2012, published 2019).
